Experiment: xn = mol fraction of the nth substance listed

CCCC[n+]1ccn(C)c1.COP(=O)([O-])OC + CC(=O)O.CC(=O)[O-].CC[NH+](CC)CCO
101 kPa, x2 = 0
Conditions	viscosity [mPa·s]
283.15 K	2142
298.15 K	609
353.15 K	36.02
358.15 K	30.38

CCCCCCCCn1cc[n+](C)c1.[Br-] + O
electrical conductivity [S/m]
Conditions	298.15 K	308.15 K
100 kPa, frequency 0.001 MHz, x1 = 0.0006843	0.249	–
100 kPa, frequency 0.001 MHz, x1 = 0.0009721	0.348	–
100 kPa, frequency 0.001 MHz, x1 = 0.001278	0.462	–
100 kPa, frequency 0.001 MHz, x1 = 0.001601	0.576	–
100 kPa, frequency 0.001 MHz, x1 = 0.001889	0.683	–
100 kPa, frequency 0.001 MHz, x1 = 0.002176	0.778	–
100 kPa, frequency 0.001 MHz, x1 = 0.002445	0.88	–
100 kPa, frequency 0.001 MHz, x1 = 0.002714	0.965	–
100 kPa, frequency 0.001 MHz, x1 = 0.003072	1.06	–
100 kPa, frequency 0.001 MHz, x1 = 0.003341	1.1	–
100 kPa, frequency 0.001 MHz, x1 = 0.003681	1.15	–
100 kPa, frequency 0.001 MHz, x1 = 0.004092	1.22	–
100 kPa, frequency 0.001 MHz, x1 = 0.004592	1.28	–
101 kPa, frequency 1 MHz, x1 = 0.0001962	0.1011	0.122

Conditions	electrical conductivity [S/m]	viscosity [mPa·s]
298.15 K, 100 kPa, x1 = 6.847e-05	–	0.892
298.15 K, 100 kPa, x1 = 0.0003279	–	0.899
298.15 K, 101 kPa, x1 = 1.982e-05	–	0.891
298.15 K, 101 kPa, x1 = 3.243e-05	–	0.892
298.15 K, 101 kPa, x1 = 0.0001962	–	0.912
298.15 K, 101 kPa, x1 = 0.001831	–	0.965
298.15 K, 101 kPa, x1 = 0.003519	1.17	–
298.15 K, 101 kPa, x1 = 0.003598	–	1.025
298.15 K, 101 kPa, x1 = 0.00377	1.23	–
298.15 K, 101 kPa, x1 = 0.003967	1.26	–
298.15 K, 101 kPa, x1 = 0.004163	1.3	–
298.15 K, 101 kPa, x1 = 0.004378	1.34	–
298.15 K, 101 kPa, x1 = 0.004538	1.36	–
298.15 K, 101 kPa, x1 = 0.004717	1.39	–
298.15 K, 101 kPa, x1 = 0.004895	1.41	–
298.15 K, 101 kPa, x1 = 0.005109	1.45	–
298.15 K, 101 kPa, x1 = 0.005288	1.48	–
298.15 K, 101 kPa, x1 = 0.005443	–	1.103
298.15 K, 101 kPa, x1 = 0.005484	1.51	–
298.15 K, 101 kPa, x1 = 0.005698	1.54	–
298.15 K, 101 kPa, x1 = 0.005894	1.56	–
298.15 K, 101 kPa, x1 = 0.007132	–	1.172
303.15 K, 100 kPa, x1 = 0.0002	–	0.803
308.15 K, 100 kPa, x1 = 0.0003279	–	0.726
308.15 K, 101 kPa, x1 = 0.0001962	–	0.736
313.15 K, 100 kPa, x1 = 0.0002	–	0.657
